Test results as given in US20140142113A1 (priority 2012, published 2014).

Experiments:
rA1 adenosine receptor = target: T1, rA1 adenosine receptor (Rattus norvegicus, UniProt P25099); test: Adenosine receptor selectivity, rA1; format: binding; details: read-out: rA1 Ki ± SEM
T1 sequence (P25099 1-326): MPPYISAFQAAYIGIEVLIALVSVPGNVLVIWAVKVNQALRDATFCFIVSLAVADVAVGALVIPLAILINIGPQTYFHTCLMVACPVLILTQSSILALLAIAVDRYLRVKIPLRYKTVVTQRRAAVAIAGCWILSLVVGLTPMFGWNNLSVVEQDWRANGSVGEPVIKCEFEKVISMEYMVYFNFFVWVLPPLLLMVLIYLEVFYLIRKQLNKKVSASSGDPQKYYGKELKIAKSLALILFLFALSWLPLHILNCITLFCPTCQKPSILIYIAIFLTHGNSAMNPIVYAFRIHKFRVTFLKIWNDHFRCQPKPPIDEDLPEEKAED
Description: (§1) The selectivity of these substances at various adenosine receptors is illustrated as follows: […]

hA3 adenosine receptor = target: T2, hA3 adenosine receptor (Homo sapiens, UniProt P0DMS8); test: Adenosine receptor selectivity, hA3; format: binding; details: read-out: hA3 Ki ± SEM
T2 sequence (P0DMS8 1-318): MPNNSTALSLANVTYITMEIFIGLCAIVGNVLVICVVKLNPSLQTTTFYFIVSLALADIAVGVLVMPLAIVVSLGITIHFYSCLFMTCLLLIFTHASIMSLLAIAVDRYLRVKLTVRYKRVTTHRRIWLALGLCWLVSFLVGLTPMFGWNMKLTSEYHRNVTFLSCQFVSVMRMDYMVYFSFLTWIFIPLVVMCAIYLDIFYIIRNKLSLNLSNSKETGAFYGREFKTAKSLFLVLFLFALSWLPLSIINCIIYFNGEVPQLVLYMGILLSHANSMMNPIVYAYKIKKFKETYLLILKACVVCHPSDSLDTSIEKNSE
Description: as §1

hA2B adenosine receptor = target: T3, hA2B adenosine receptor (Homo sapiens, UniProt P29275); test: Adenosine receptor selectivity, hA2B; format: binding; details: read-out: hA2B IC50 ± SEM
T3 sequence (P29275 1-332): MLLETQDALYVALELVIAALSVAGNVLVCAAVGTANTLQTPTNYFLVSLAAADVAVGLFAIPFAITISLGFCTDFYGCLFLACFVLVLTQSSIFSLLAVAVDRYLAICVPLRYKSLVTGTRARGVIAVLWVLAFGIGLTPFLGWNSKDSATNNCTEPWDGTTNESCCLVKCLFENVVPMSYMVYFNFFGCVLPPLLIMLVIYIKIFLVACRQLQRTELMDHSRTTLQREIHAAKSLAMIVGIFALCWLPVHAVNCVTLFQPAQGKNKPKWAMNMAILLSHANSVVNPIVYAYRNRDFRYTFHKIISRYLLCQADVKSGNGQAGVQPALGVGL
Description: as §1

rA2A adenosine receptor = rA2A adenosine receptor (Rattus norvegicus, UniProt P30543); test: Adenosine receptor selectivity, rA2A; format: binding; details: read-out: rA2A Ki ± SEM
Description: as §1

[1] = system: experimental autoimmune encephalomyelitis; test: Experimental autoimmune encephalomyelitis (EAE) in mice; format: in vivo; details: C57B/6 mice, 15 mg/kg i.p. once daily from EAE induction
Method: Control mice were treated with PEG/saline (triangles). […] Data are the mean plotted with the standard error of the mean.
EAE is a widely used animal model for multiple sclerosis (MS).
EAE was induced in C57B/6 mice by subcutaneous immunization with 100 ug/mouse myelin oligodendrocyte glycoprotein (MOG) peptide 35-55 emulsified in compete Freund's adjuvant (CFA) containing 2 mg/ml heat-killed mycobacterium tuberculosis H37Ra (Hooke Laboratories). As part of the induction protocol, mice were also injected intraperitoneally on the day of immunization and 48 hours later with 0.1 ml of 4 [mu]g/mL Bordetella pertusis toxin. Severity of EAE was determined daily based on a standard scoring system: 1, tail weakness or paralysis; 2, hind leg weakness; 3, hind limb paralysis; 4, forelimb weakness; and 5, moribund animals or death.

[2] = system: collagen-induced arthritis; test: Collagen induced arthritis (CIA) in mice; format: in vivo; details: DBA/1 mice, 30 mg/kg i.p. once daily
Method: Control mice were treated with saline (circles). Data are the mean arthritis paw thickness, assessed using a calliper in the days following primary immunization and boost.
After the end of treatment, the inhibitory effect was maintained for a period of 2-3 days after which signs began to re-emerge.
Treatment of rheumatoid arthritis using Collagen Induced Arthritis as a model Collagen-induced arthritis studies. CIA in DBA/1 mice was induced by injecting DBA/1 mice with bovine type Il collagen (CII) emulsified in CFA1 followed by boosting 21 days later with CII emulsified in incomplete Freund's adjuvant (IFA). […] 30 mg/kg was delivered by i.p. injection once daily, starting following the development of clinical arthritis in treatment experiments. Animals were monitored daily following boost of arthritis, following the emergence of clear signs of disease observed on two consecutive days, animals were allocated randomly to treatment groups. Signs monitored included weight loss, paw thickness, and observed clinical score. Scoring is according to the presence of inflamed joints: 1 point for an inflamed digit, 1 point for a inflamed metatarsus, and 1 point for an inflamed joint above the metatarsus.

[3] = Pharmacokinetics of Compound 1 in mice, oral or intravenous; format: in vivo; details: C57BLK6 mice
Method: The cellulose formulation was administered to C57BLK6 mice orally. The serum suspension/solution was administered intravenously. […] The results are recorded in FIG. 5.

Chain of rA2A adenosine receptor (P30543 whole entry): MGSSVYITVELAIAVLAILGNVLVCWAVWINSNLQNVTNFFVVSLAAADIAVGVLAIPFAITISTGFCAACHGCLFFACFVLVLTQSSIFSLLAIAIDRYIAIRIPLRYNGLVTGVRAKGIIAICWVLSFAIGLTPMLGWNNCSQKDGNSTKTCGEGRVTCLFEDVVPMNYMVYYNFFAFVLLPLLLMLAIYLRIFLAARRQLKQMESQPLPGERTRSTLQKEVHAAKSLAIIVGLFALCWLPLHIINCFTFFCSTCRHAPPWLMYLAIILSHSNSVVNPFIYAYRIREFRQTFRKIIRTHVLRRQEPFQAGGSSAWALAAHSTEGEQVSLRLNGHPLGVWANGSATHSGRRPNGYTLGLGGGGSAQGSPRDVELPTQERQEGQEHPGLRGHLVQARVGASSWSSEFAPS

Row | Ki (rA1 adenosine receptor) | Ki (hA3 adenosine receptor) | IC50 (hA2B adenosine receptor) | Ki (rA2A adenosine receptor) | SMILES | further results
1 | 79 ± 5 nM | 4150 nM | 24 ± 10 nM | 590 ± 29 nM | CCCn1c(=O)[nH]c2nc(-c3ccc(S(=O)(=O)N4CCN(Cc5ccc6c(c5)OCO6)CC4)cc3)[nH]c2c1=O [Propyl-/3,4-(Methylen-dioxy)benzyl-] | 
2 |  | < 10000 nM | 11 ± 3 nM | 154 ± 44.9 nM | CCCn1c(=O)[nH]c2nc(-c3ccc(S(=O)(=O)N4CCN(CCc5ccccc5)CC4)cc3)[nH]c2c1=O [Propyl-/2-(Phenyl)ethyl-] | 
3 | 111 ± 43 nM |  | 3 ± 0.2 nM | 782 ± 236 nM | CCCn1c(=O)[nH]c2nc(-c3ccc(S(=O)(=O)N4CCN(Cc5cccc(F)c5)CC4)cc3)[nH]c2c1=O [Compound 5] | 
4 | 463 ± 122 nM |  | 2 ± 1 nM | 1540 ± 271 nM | CCCn1c(=O)[nH]c2nc(-c3ccc(S(=O)(=O)N4CCN(Cc5ccc(C(F)(F)F)cc5)CC4)cc3)[nH]c2c1=O [Compound 2] | 
5 | 129 ± 41 nM | < 10000 nM | 5 ± 1 nM | 630 ± 305 nM | CCn1c(=O)[nH]c2nc(-c3ccc(S(=O)(=O)N4CCN(Cc5ccc(OC)cc5)CC4)cc3)[nH]c2c1=O [Ethyl-/p-Methoxybenzyl-] | 
6 | 509 ± 155 nM |  | 2 ± 1 nM | 499 ± 129 nM | CCn1c(=O)[nH]c2nc(-c3ccc(S(=O)(=O)N4CCN(Cc5cccc(C(F)(F)F)c5)CC4)cc3)[nH]c2c1=O [Compound 3] | 
7 | 178 ± 38 nM |  | 2 ± 0.1 nM | 799 ± 358 nM | CCCn1c(=O)[nH]c2nc(-c3ccc(S(=O)(=O)N4CCN(Cc5cccc(Cl)c5)CC4)cc3)[nH]c2c1=O [Compound 4] | 
8 | 386 ± 98 nM |  | 4 ± 1 nM | 1730 ± 790 nM | CCCn1c(=O)[nH]c2nc(-c3ccc(S(=O)(=O)N4CCN(Cc5ccc(Cl)cc5)CC4)cc3)[nH]c2c1=O [Propyl-/p-Chlorbenzyl-] | 
9 | 151 ± 38 nM | > 10000 nM | 10 ± 2 nM | 848 ± 433 nM | CCCn1c(=O)[nH]c2nc(-c3ccc(S(=O)(=O)N4CCN(Cc5ccccc5)CC4)cc3)[nH]c2c1=O [Propyl-/Benzyl-] | 
10 | 273 ± 47 nM |  | 4 ± 0.2 nM | 1700 ± 217 nM | CCCn1c(=O)[nH]c2nc(-c3ccc(S(=O)(=O)N4CCN(Cc5cccc(C(F)(F)F)c5)CC4)cc3)[nH]c2c1=O [Propyl-/m-Trifluormethylbenzyl-] | 
11 | 84 ± 19 nM |  | 16 ± 6 nM | 1020 ± 561 nM | CCCn1c(=O)[nH]c2nc(-c3ccc(S(=O)(=O)N4CCN(Cc5ccc(OC)cc5)CC4)cc3)[nH]c2c1=O [Propyl-/p-Methoxybenzyl-] | 
12 | 54 ± 5 nM | < 10000 nM | 5 ± 2 nM | 332 ± 129 nM | CCn1c(=O)[nH]c2nc(-c3ccc(S(=O)(=O)N4CCN(Cc5ccc6c(c5)OCO6)CC4)cc3)[nH]c2c1=O [Ethyl-/3,4-(Methylen-dioxy)benzyl-] | 
13 | 142 ± 6 nM | > 10000 nM | 4 ± 3 nM | 514 ± 41 nM | CCn1c(=O)[nH]c2nc(-c3ccc(S(=O)(=O)N4CCN(c5ccccc5)CC4)cc3)[nH]c2c1=O [Ethyl-/Phenyl-] | 

Row | SMILES | Ki (rA1 adenosine receptor) | Ki (hA3 adenosine receptor) | IC50 (hA2B adenosine receptor) | Ki (rA2A adenosine receptor) | further results
14 | CCCn1c(=O)[nH]c2nc(-c3ccc(S(=O)(=O)N4CCN(c5ccc(Cl)cc5)CC4)cc3)[nH]c2c1=O [Compound 1] |  | > 10000 nM | 1 ± 0.4 nM |  | onset of EAE compared to control mice ([1]; 15 mg/kg): delayed onset such that there were no signs of EAE; onset of EAE compared to control mice ([1]; listed as compound 1, 15 mg/kg): a delay in the onset of EAE; effect on existing inflammation in CIA ([2]; established arthritis): able to reduce an existing inflammation to a normal state; severity of CIA (paw swelling, erythema, joint rigidity; mean visual arthritis score) ([2]; started after development of clinical arthritis): significant reductions in the severity of CIA; detectability in blood by route ([3]; oral or intravenous route): detectable only via injection; oral availability ([3]; oral, 1% methyl cellulose in water, 0.2% Tween 80): not orally available; half-life ([3]; whole blood, iv, i.v. application in mouse serum, read-out: terminal half life): 1 to 2 h
